Data set [1] is described as follows: Toxicity of the Compounds of Formula I. Type of data set: in vivo. Conditions: 10 mg/Kg intraperitoneally daily for 14 days, 5 male and 5 female CDI mice per group. As to the method:
Three groups, each composed of 5 male and 5 female CDI mice, were injected intraperitoneally with 10 mg/Kg of 5-(N-benzyloxycarbonyl-L-phenylalaninamidomethyl)-3-bromo-4,5-dihydroisoxazole or 5-(N-benzyloxycarbonyl-L-para-tyrosinamidomethyl)-3-chloro-4,5-dihydroisoxazole daily for 14 days.

Data set [2] concerns blackhead-like lesions and whitehead-like lesions (spontaneous acne-like condition). Put plainly: Mexican Hairless Dog Assays. Type of data set: in vivo, Mexican hairless beagle dog. Conditions: two dogs. An excerpt: To determine the utility of the compounds of Formula (I) for treating acne in mammals, one can use the procedures described by DeYoung, et al. Another model examined is the Mexican hairless beagle dog, a procedure for which is set forth in Example 10.
Gel vehicle alone was not effective.

In data set [3] the test system is psoriatic plaque. Put plainly: Psoriatic plaque chamber test (Example 13). To be noted: 1% w/w in propylene glycol/Carbopol 940 gel, 0.05 ml in chamber on psoriatic plaque, five subjects, applied days 1-16, readings to day 23. Type of data set: in vivo, humans. As to the method: To determine the utility of the compounds of Formula (I) for treating psoriasis in humans, the procedure of Example 13 can be followed.
5-(N-benzyloxycarbonyl-L-phenylalaninamidomethyl)-3-bromo-4,5-dihydroisoxazole was levigated into a gel vehicle (see Example 14) to afford a concentration of 1% w/w. The gel vehicle contained primarily propylene glycol which was gelled with Carbopol 940.
0.05 ml of the gel containing active ingredient was filled into a 1 mm deep teflon chamber (Durhing chamber) which was then applied to the psoriatic plaque of each of the five subjects. The plaque was then covered with Scanpor® adhesive tape. The gel was applied on days 1, 3, 5, 8, 10, 12 and 16. Each time, fresh gel, chamber, and tape were used. Readings were taken on Days 5, 10, 12, 16 and 23 (one week off therapy). The presence or absence of a normal appearing epidermis was evaluated using a scale of 0 to 2.

In data set [4] the test system is transglutaminase. To be noted: prior-art inhibitors; cited from earlier work.
The mark [5] stands for this setting: 2.5% in gel (40% dimethylisosorbide, 55% ethanol, 2.5% carbomer 940).
Where [6] appears, read: 2.5% in gel (2.5% Klucel, 10% diisopropyl adipate, 80% ethanol, 5% propylene glycol), once daily, 14 days.

The values that follow come from patent publication US4912120A, “3,5-substituted 4,5-dihydroisoxazoles as transglutaminase inhibitors” (Syntex (U.S.A.) Inc., priority 1987, dated 1990).

As to `O=C(N[C@@H](Cc1ccc(O)cc1)C(=O)NCC1CC(Cl)=NO1)OCc1ccccc1` (stereo partly drawn) [5-(N-benzyloxycarbonyl-L-para-tyrosinamidomethyl)-3-chloro-4,5-dihydroisoxazole], the toxic effects entry in data set [1] is listed as “No toxic effects”.
Regarding `O=C(N[C@@H](Cc1ccc(O)cc1)C(=O)NCC1CC(Br)=NO1)OCc1ccccc1` (mixture of isomers) [5-(N-benzyloxycarbonyl-L-paratyrosinamidomethyl)-3-bromo-4,5-dihydroisoxazole], the clearing of lesions result in data set [2] (setting [5]) is given as “positive results”.
`O=C(N[C@@H](Cc1ccccc1)C(=O)NCC1CC(Cl)=NO1)OCc1ccccc1` (mixture of isomers) [5-(N-benzyloxycarbonyl-L-phenylalaninamidomethyl)-3-chloro-4,5-dihydroisoxazole]: the clearing of lesions result in data set [2] (setting [6]) is reported as “good clearing”; in data set [2] (setting [5]) it was “positive results”.
For the molecule `O=C(N[C@@H](Cc1ccccc1)C(=O)NCC1CC(Br)=NO1)OCc1ccccc1` (mixture of isomers) [5-(N-benzyloxycarbonyl-L-phenylalaninamidomethyl)-3-bromo-4,5-dihydroisoxazole], the “activity against psoriasis (presence or absence of normal appearing epidermis, scale of 0 to 2)” value in data set [3] is “shows activity against psoriasis”. Further, the toxic effects result in data set [1] is reported as “No toxic effects”. Further, the clearing of lesions entry in data set [2] (setting [6]) was “clearing of the majority of blackhead-like lesions and many whitehead-like lesions”; in data set [2] (setting [5]) it was “positive results”.
On to `NCCSSCCN` [cystamine], for which, in data set [4], the effective concentration entry was “greater than 10^-3 M” and the specificity for transglutaminases result is recorded as “lacks specificity for transglutaminases”.
